Laboratory results as given in the supplement of paper PMC10307832.

Legend:
Assay in all cases: relative viability (nuclei count vs DMSO), 5 days (fraction); higher = more cells survive
[1] = compound: C1=CC2=C(C=C(C(=C2N=C1)O)N=NC3=CC4=C(C=C3)C=C(C=C4)S(=O)(=O)O)S(=O)(=O)O + CS(=O)(=O)N1CCN(Cc2cc3nc(-c4cccc5[nH]ncc45)nc(N4CCOCC4)c3s2)CC1 [Pictilisib] (partner 1 µM)
Procedure, shortened: (§1)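 Lung cancer cell lines in 1536-well plates were dosed by pin tool the day after seeding, either with one drug alone or with a fixed anchor-drug dose plus five library-drug doses (not always all listed) in √10 steps. After 5 days, cells were fixed and their nuclei stained in one step (final 0.05% Triton X-100, 1% formaldehyde, 1 ug/ml Hoechst), then counted on 4× images. Relative viability is the nuclei count in treated wells divided by that in vehicle wells. Values are medians of duplicate plates.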

AT-7519 + Lapatinib = compound: O=C(NC1CCNCC1)c1n[nH]cc1NC(=O)c1c(Cl)cccc1Cl [AT-7519] + CS(=O)(=O)CCNCc1ccc(-c2ccc3ncnc(Nc4ccc(OCc5cccc(F)c5)c(Cl)c4)c3c2)o1 [Lapatinib] (partner 2 µM)
Procedure, shortened: as §1

[2] = compound: C1=CC2=C(C=C(C(=C2N=C1)O)N=NC3=CC4=C(C=C3)C=C(C=C4)S(=O)(=O)O)S(=O)(=O)O + CS(=O)(=O)CCNCc1ccc(-c2ccc3ncnc(Nc4ccc(OCc5cccc(F)c5)c(Cl)c4)c3c2)o1 [Lapatinib] (partner 2 µM)
Procedure, shortened: as §1

AT-7519 + Alpelisib = compound: O=C(NC1CCNCC1)c1n[nH]cc1NC(=O)c1c(Cl)cccc1Cl [AT-7519] + Cc1nc(NC(=O)N2CCC[C@H]2C(N)=O)sc1-c1ccnc(C(C)(C)C(F)(F)F)c1 [Alpelisib] (partner 2 µM)
Procedure, shortened: as §1

Cell Line	relative viability ([1]; first compound 0.08 µM)	relative viability ([1]; first compound 0.253 µM)	relative viability ([1]; first compound 0.8 µM)	relative viability ([1]; first compound 2.53 µM)	relative viability ([1]; first compound 8 µM)	relative viability (AT-7519 + Lapatinib; first compound 0.01 µM)	relative viability (AT-7519 + Lapatinib; first compound 0.03162 µM)	relative viability (AT-7519 + Lapatinib; first compound 0.3162 µM)	relative viability (AT-7519 + Lapatinib; first compound 1 µM)	relative viability ([2]; first compound 0.08 µM)	relative viability ([2]; first compound 0.253 µM)	relative viability ([2]; first compound 0.8 µM)	relative viability ([2]; first compound 2.53 µM)	relative viability ([2]; first compound 8 µM)	relative viability (AT-7519 + Alpelisib; first compound 0.01 µM)	relative viability (AT-7519 + Alpelisib; first compound 0.03162 µM)	relative viability (AT-7519 + Alpelisib; first compound 0.3162 µM)	relative viability (AT-7519 + Alpelisib; first compound 1 µM)
HCC-44	0.649	0.636	0.548	0.649	0.766	0.984	1.05	1.1	0.979	1.08	0.975	0.96	1.05	1.09	0.835	0.835	0.769	0.572
HCC-827	1.09	1.07	0.801	1.02	0.992	0.21	0.165	0.162	0.157	0.19	0.159	0.185	0.189	0.188	1.03	0.999	1.02	0.708
NCI-H2347	0.651	0.585	0.541	0.657	0.683	1.04	1.06	0.989	0.935	1.05	0.921	0.839	0.882	0.824	1.2	0.952	1.08	0.771
PC-14	0.845	0.682	0.621	0.585	0.673	0.269	0.302	0.313	0.296	0.369	0.333	0.322	0.357	0.329	0.839	1	1	0.912
NCI-H1651	0.777	0.517	0.489	0.593	0.563	0.862	0.784	0.607	0.534	0.764	0.865	0.781	0.911	0.964	1.03	0.956	0.811	0.836
HARA	0.356	0.471	0.384	0.38	0.707	0.804	0.622	0.604	0.681	0.836	0.611	0.681	0.869	0.778	0.836	0.72	0.816	0.541
NCI-H1650	0.645	0.587	0.529	0.648	0.596	0.781	0.782	0.555	0.21	0.753	0.739	0.714	0.821	0.734	–	–	–	–
NCI-H1395	0.667	0.607	0.578	0.575	0.602	1.03	1.14	0.802	0.602	1.14	1.18	1.19	1.01	0.966	1.18	1.06	0.898	0.584
LU99A	0.391	0.314	0.251	0.297	0.37	1.02	1.07	0.898	0.41	0.934	0.974	0.949	0.972	1.14	0.612	0.435	0.478	0.42
